SMILES strings stand for the structures.

One may read the melting point as the temperature, or range, at which the solid turns liquid. In turn, `O=C(O)Cc1cccc2cccnc12` came in with a melting point of 130 to 132 °C.

As to `COc1nc(O)c2ccccc2n1`, the melting point is 228 to 230 °C.

As for `CC(C)C(=O)Nc1nc(CC(=O)O)cs1`, the melting point lay within 187 to 189 °C.

The compound `CC(C)(C)OC(=O)NCCNC(=O)C1CCCNC1` (stereo unspecified) had a melting point of 130 to 132 °C.

Regarding `Cn1ccc(C(=O)N2CCC[C@H]2C(=O)O)cc1=O`, the melting point fell in the range of 149 to 151 °C.

The compound `CC(N)Cc1cccc(O)c1` (stereo unspecified) had a melting point of 45 to 47 °C.

For `NNC(=O)C1Cc2ccccc2O1` (stereo unspecified), the melting point is 150 to 152 °C.

As to `CC(=O)c1csc(N)n1`, the melting point fell in the range of 165 to 177 °C.

Consider `CC(C)NC(=O)c1ccc(N)cc1`, for which the melting point lay in the range of 149 to 151 °C.

In turn, `Cc1cccc2cc(C(=O)O)[nH]c12` gave a melting point of 169 to 175 °C.

As for `CC(C)NC(=O)Nc1ccccc1[N+](=O)[O-]`, the melting point was in the range of 169 to 171 °C.

In the case of `O=S(=O)(Cl)c1c[nH]c2nccc(Br)c12`, the melting point was 177 to 179 °C.

As to `NS(=O)(=O)c1ccc(C(=O)CBr)cc1`, the melting point lay in the range of 149 to 151 °C.

As for `Cc1c(C(=O)O)cc(Br)cc1S(N)(=O)=O`, the melting point fell in the range of 213 to 215 °C.

In the case of `O=C(CCl)NC(C1CC1)C1CC1`, the melting point was in the range of 114 to 116 °C.

`Cn1cnnc1-c1ccnc(N)c1` yielded a melting point of 204 to 206 °C.

Consider `CC(Cl)c1nc2scc(-c3ccccc3)c2c(=O)[nH]1` (stereo unspecified), for which the melting point was in the range of 165 to 167 °C.

With `CC(C(=O)O)c1ccc(N(C)C)cc1` (stereo unspecified), the melting point is 128 to 130 °C.

On to `O=C(O)c1ccc(N2CCCc3ccccc32)cc1`, for which the melting point lay in the range of 214 to 216 °C.

As for `O=C(O)CCc1ccc2c(c1)OCCCO2`, the melting point was 81 to 83 °C.

Regarding `CCCCCCNC(=O)CCl`, the melting point lay in the range of 29 to 31 °C.

Regarding `Nc1ccc(N2CCNC(=O)C2)c(Cl)c1`, the melting point was 147 to 149 °C.

Turning to `Nc1ccc(SC(F)(F)F)c(F)c1`, the melting point fell in the range of 33 to 35 °C.

Take `NC(=O)N1CCC(O)CC1`: the melting point lay within 147 to 149 °C.

Compound `COCc1cc([N+](=O)[O-])ccc1Cl` had a melting point of 43 to 45 °C.

As to `N#Cc1cnn(-c2cccc(Cl)c2)c1`, the melting point was 139 to 141 °C.

On to `COC(=O)c1ccccc1CC(=O)O`, for which the melting point is 139 to 141 °C.

As for `Cn1ccc2cc[nH]c(=O)c21`, the melting point lay in the range of 190 to 192 °C.

`CC(C)(C)OC(=O)N1CCC(CC#N)CC1` returned a melting point of 72 to 74 °C.

For `Cc1ncc(CN)n1-c1ccccc1`, the melting point was 46 to 48 °C.

`CCc1nc(C(=O)O)co1` had a melting point of 101 to 103 °C.

Turning to `Nc1nnc(Cc2ccccc2)s1`, the melting point was 170 to 179 °C.

Compound `CC(C)Oc1ccc(C(N)=O)cc1` showed a melting point of 166 to 168 °C.

Consider `Cc1nnc(CO)o1`, for which the melting point was 129 to 131 °C.

For `Cc1cc(C)c(C#N)c(=S)[nH]1`, the melting point lay in the range of 255 to 257 °C.

For `O=C(O)c1ccc(Oc2ccc(F)c(F)c2)cc1`, the melting point lay within 156 to 158 °C.

In turn, `Cc1ccn2c(N)c(-c3cccs3)nc2c1` had a melting point of 223 to 225 °C.

`O=C(O)CCc1ccc(S(=O)(=O)NC2CC2)cc1` yielded a melting point of 173 to 175 °C.

Regarding `Cc1ccc(Cl)c2ccc(Cl)nc12`, the melting point lay within 61 to 63 °C.

As for `CC(=O)c1[nH]c2c(c1C)C(=O)NC(=O)C2`, the melting point fell in the range of 354 to 356 °C.

Compound `CC1CNC(=Nc2cnc3ccccc3c2)S1` (stereo unspecified) gave a melting point of 144 to 146 °C.

For the compound `CCOC(=O)Cc1csc(NC(=O)OCC(F)(F)F)n1`, the melting point was 120 to 122 °C.

Compound `Cc1ccc(S(N)(=O)=O)c(C(=O)O)c1` gave a melting point of 271 to 273 °C.

In turn, `CCc1nc2cc(N)ccc2o1` gave a melting point of 69 to 71 °C.

Compound `CC1Cc2c(Br)cccc2C(=O)N1` (stereo unspecified) displayed a melting point of 135 to 137 °C.

As for `CCC1CCc2[nH]c3ccc(C)cc3c2C1` (stereo unspecified), the melting point was in the range of 59 to 61 °C.

In the case of `CCOC(=O)N1CCc2nnc(Cl)cc2C1`, the melting point was 106 to 108 °C.

`COc1cc(C=O)ccc1Oc1ccc(S(=O)(=O)N2CCCCC2)cc1[N+](=O)[O-]` returned a melting point of 173 to 175 °C.

Consider `COC(=O)C1=C(C)NC(C)=C(C(=O)OC)C1C(=O)O`, for which the melting point was in the range of 128 to 130 °C.

With `O=C(O)CCNC(=O)C1CCCCC1`, the melting point was 125 to 127 °C.

On to `CC(C)(C)C1CCc2sc(-c3nnc(CCl)o3)cc2C1` (stereo unspecified), for which the melting point was in the range of 89 to 91 °C.

`O=C(O)CCn1cc(Cl)cn1` showed a melting point of 91 to 93 °C.

For `COc1ccc(-c2nnc(Cl)c3ccccc23)cc1`, the melting point lay in the range of 148 to 150 °C.

`CCOc1ccc(NC(=O)c2ccc(NC(=O)CCl)cc2)cc1` displayed a melting point of 253 to 255 °C.

Take `CC(C)(C)OC(=O)N1CCC2(CC1)CC2C(=O)O` (stereo unspecified): the melting point was in the range of 123 to 125 °C.

With `CC(O)(c1ccc([N+](=O)[O-])cc1)C(F)(F)F` (stereo unspecified), the melting point fell in the range of 86 to 88 °C.

As to `O=C(O)COc1cc(Cl)ccc1Cl`, the melting point was 146 to 148 °C.

In turn, `CN(C)C(=O)c1ccccc1C(=O)O` returned a melting point of 124 to 126 °C.

On to `O=C(O)CCC(Cc1ccc(Cl)cc1)C(=O)O` (stereo unspecified), for which the melting point is 137 to 139 °C.

Consider `N#Cc1ccc(S(=O)(=O)Cl)cc1Cl`, for which the melting point was 51 to 53 °C.

The compound `Nc1nnc(C(F)F)s1` came in with a melting point of 174 to 176 °C.

Turning to `Nc1cc2c(cc1C(=O)O)OCCO2`, the melting point lay in the range of 189 to 191 °C.

`N#CC1(c2ccc(C(=O)O)cc2)CC1` displayed a melting point of 219 to 221 °C.

Regarding `O=C(CCl)NNC(=O)c1cccc(Cl)c1`, the melting point is 155 to 157 °C.

On to `Oc1ccc(Oc2ccncc2)cc1`, for which the melting point lay within 181 to 183 °C.

For `O=C(O)/C=C/c1ccc(Cl)s1`, the melting point was in the range of 198 to 200 °C.

`CCOC(=O)/C(C#N)=C/Nc1cc(OC)cc(OC)c1` gave a melting point of 140 to 142 °C.

Regarding `Cc1cccc(Oc2ccc(Cl)cc2N)c1`, the melting point was 93 to 97 °C.

`Cc1c(C(=O)O)nnn1-c1ccc(Cl)cc1F` yielded a melting point of 164 to 166 °C.

`COc1cccc(C=C(CC(=O)O)c2nc3ccccc3s2)c1` showed a melting point of 153 to 155 °C.

For the compound `O=C(CC(=O)Nc1ccccc1)Nc1ccccc1`, the melting point fell in the range of 220 to 222 °C.

Regarding `COc1ccc(C(CN)NC(=O)OC(C)(C)C)cc1` (stereo unspecified), the melting point fell in the range of 90 to 92 °C.

Consider `CC(C)NC(=O)NC(=O)CCl`, for which the melting point was in the range of 86 to 88 °C.

Compound `CC(C)n1nccc1C(=O)O` showed a melting point of 149 to 151 °C.

In turn, `O=C(O)Cn1cc(Br)c(=O)[nH]c1=O` registered a melting point of 266 to 268 °C.

As to `CC(C)NCCc1nc(-c2ccc(S(C)(=O)=O)cc2)c[nH]1`, the melting point was in the range of 264 to 266 °C.

For the compound `COc1ccc(Oc2ccc(Cl)cc2N)cc1`, the melting point was 47 to 49 °C.

The compound `O=C(O)CSc1ccc(O)cc1` gave a melting point of 141 to 143 °C.

Regarding `O=c1[nH]c2c(s1)CCCC2`, the melting point lay in the range of 141 to 143 °C.

As to `Nc1ccn(CCc2ccncc2)n1`, the melting point was in the range of 140 to 142 °C.

As to `C1Cc2nn[nH]c2CN1`, the melting point was in the range of 154 to 156 °C.

`O=[N+]([O-])c1cnc(Cl)c(Cl)c1` came in with a melting point of 52 to 54 °C.

In the case of `C#CCn1ccc2ccccc21`, the melting point was in the range of 43 to 45 °C.

In turn, `CS(=O)(=O)c1ccc(CN)cc1` showed a melting point of 272 to 274 °C.

`CN1CCN(c2ccc(N)cc2Cl)CC1` gave a melting point of 127 to 129 °C.

With `O=C(Cc1ccccc1F)N1CCNCC1`, the melting point was in the range of 77 to 79 °C.

Take `Cn1cc(CCC(=O)O)c2ccccc21`: the melting point is 123 to 125 °C.

On to `COC(=O)c1cnc(-c2ccccc2)s1`, for which the melting point lay in the range of 107 to 109 °C.

With `CCCOc1ccc(-c2nc(C(=O)O)cs2)cc1`, the melting point is 183 to 185 °C.

As for `Cc1c(C(=O)O)sc2ncn(C)c(=O)c12`, the melting point was 215 to 217 °C.

As to `Cc1ccc(-n2cc(S(=O)(=O)Cl)cn2)cc1S(=O)(=O)Cl`, the melting point lay within 114 to 116 °C.

In turn, `Cc1ccc(-c2nn(CCC#N)cc2C(=O)O)cc1C` returned a melting point of 174 to 176 °C.

As for `NCc1ccc(NC(=O)c2ccco2)cc1`, the melting point was in the range of 102 to 104 °C.

As for `Cc1ccc(C)n1-c1ccc(C(=O)O)cc1`, the melting point lay within 213 to 215 °C.

As for `O=C(O)C1CC(=O)N(c2cccc(Cl)c2)C1` (stereo unspecified), the melting point is 133 to 135 °C.

Compound `CC(CS(=O)(=O)c1ccc(F)cc1)C(=O)O` (stereo unspecified) registered a melting point of 128 to 130 °C.

`NC(=O)C(O)C1CC1` (stereo unspecified) returned a melting point of 115 to 117 °C.

In turn, `Cc1nc(N2CCNCC2)sc1C` returned a melting point of 72 to 74 °C.

On to `N#Cc1ccc(OCc2ccc(C(=O)O)o2)cc1`, for which the melting point lay within 203 to 205 °C.

Consider `CC1(c2cc3ccccc3o2)NC(=O)NC1=O` (stereo unspecified), for which the melting point lay within 203 to 205 °C.

`NNc1ccc(C(F)(F)F)cn1` gave a melting point of 61 to 63 °C.

Consider `Nc1ccnc(Oc2ccccc2Cl)c1`, for which the melting point lay in the range of 121 to 123 °C.

Compound `O=C1CCc2c1ccc(Cl)c2Cl` came in with a melting point of 82 to 84 °C.

On to `Nc1ccc(CC2NC(=O)NC2=O)cc1` (stereo unspecified), for which the melting point was 152 to 154 °C.

Take `COCCOc1ccc(C#N)cn1`: the melting point is 39 to 41 °C.

`O=C(O)c1cccc(S(=O)(=O)Cc2ccccc2)c1` showed a melting point of 214 to 216 °C.

In turn, `CCOC(=O)Cn1ncc2ccc(N)cc21` came in with a melting point of 114 to 116 °C.

In the case of `O=C(O)c1ccc(NC(=O)c2ccc(Br)o2)cc1`, the melting point lay within 276 to 278 °C.

For `O=c1[nH]c(CO)nc2scc(-c3ccccc3)c12`, the melting point was 259 to 261 °C.

On to `CNS(=O)(=O)c1ccc(S(=O)(=O)Cl)cc1`, for which the melting point lay within 99 to 101 °C.

As to `C=CCN(CC(=O)O)S(=O)(=O)c1ccc(Cl)cc1`, the melting point lay in the range of 136 to 138 °C.

The compound `O=C(O)c1nn(-c2ccc(Br)cc2)c2c1CCCC2` showed a melting point of 232 to 234 °C.

`O=C1C=CC(=O)N1c1cc([N+](=O)[O-])ccc1Cl` had a melting point of 73 to 75 °C.

Regarding `NS(=O)(=O)c1nccs1`, the melting point lay in the range of 119 to 121 °C.

As for `O=C(Nc1cccc(CO)c1)c1ccccc1`, the melting point was in the range of 114 to 116 °C.

`COCCOc1cc(C(=O)O)nc2ccccc12` showed a melting point of 179 to 181 °C.

Consider `Cn1c(=O)[nH]c(=O)c2ccc(C(=O)O)nc21`, for which the melting point was in the range of 305 to 307 °C.

`O=C1NC(=O)N(CCc2cccs2)C1=O` registered a melting point of 118 to 120 °C.

Compound `NC1(C(F)(F)F)CCC(O)CC1` (stereo unspecified) yielded a melting point of 98 to 100 °C.

For the compound `CN1CCC(Nc2cccc3ccccc23)CC1`, the melting point fell in the range of 83 to 85 °C.

The compound `O=C(O)CN1CCCC1=O` showed a melting point of 125 to 135 °C.

The values above are taken from a melting point compilation (Tetko et al.).
